Laboratory results as given in US20040122058A1, “Use of specific compounds particularly kinase inhibitors for treating viral infections” (priority 2001, published 2004).

Tests used:
[1] = tested on: Ebola (EBO) virus infected peripheral blood mononuclear cells (PBMC); assay type: cell-based, human
[2] = tested on: Ebola virus induced TNF-α release in primary human macrophages; assay type: cell-based
[3] = tested on: bacterial LPS-induced TNF-α release; assay type: cell-based, human
[4] = tested on: Marburg (MBG) virus infected peripheral blood mononuclear cells (PBMC); assay type: cell-based, human
[5] = tested on: Marburg virus induced TNF-α release in primary human macrophages; assay type: cell-based
[6] = tested on: IL-1 beta release of Ebola virus infected VeroE6 cells
[7] = tested on: Ebola virus
[8] = tested on: Marburg virus
[9] = tested on: IL-1 beta release of Marburg virus infected VeroE6 cells

SMILES	TNF-α release [1]	Ebola virus induced TNFα production [2]	virally induced TNF-α release [2]	bacterial LPS-induced TNF-α production [3]	bacterial LPS-induced TNF-α release [3]	TNF-α release [4]	Marburg virus induced TNFα production [5]	virally induced TNF-α release [5]	release of IL-1 beta to the supernatant [6]	replication of Ebola virus (plaques) [7]	replication of Marburg virus (plaques) [8]	release of IL-1 beta to the supernatant [9]	Ebola virus induced TNF-α release/production [2]	Marburg virus induced TNF-α release/production [5]
COc1cccc(-c2cc(=O)c3ccccc3o2)c1N [Compound 1, 2′-amino-3′-methoxyflavone]	dose-dependent inhibitory effect	inhibited very strongly and dose-dependently	inhibitory effects	no inhibitory effect at all	did not reduce	dose-dependent inhibitory effect	inhibited very strongly and dose-dependently	inhibitory effects	–	–	–	–	–	–
O=C(NOCC1CC1)c1ccc(F)c(F)c1Nc1ccc(I)cc1Cl [Compound 2, 2-(2-chloro-4-iodophenylamino)-N-cyclopropylmethoxy-3,4-difluorobenzamide]	inhibitory effect	inhibited very strongly and dose-dependently	inhibitory effects	no inhibitory effect at all	did not reduce	inhibitory effect	inhibited very strongly and dose-dependently	inhibitory effects	–	–	–	–	–	–
N#CC(=C(N)Sc1ccccc1N)C(C#N)=C(N)Sc1ccccc1N [Compound 3, 1,4-diamino-2,3-dicyano-1,4-bis(2-aminophenylthio)butadiene]	dose-dependent inhibitory effect	inhibited very strongly and dose-dependently	inhibitory effects	no inhibitory effect at all	did not reduce	dose-dependent inhibitory effect	inhibited very strongly and dose-dependently	inhibitory effects	dramatically reduces	does not have an obvious effect	does not have an obvious effect	dramatically reduces	–	–
Oc1ccc(-c2nc(-c3ccc(F)cc3)c(-c3ccncc3)[nH]2)cc1 [Compound 4]	–	–	–	no inhibitory effect at all	–	–	–	–	–	–	–	–	did not significantly inhibit	did not significantly inhibit
